“And” between values parts separate entries of the source, which are not always exact repeats. Identical values can stand only once.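 The compound was tested at five concentrations on cells cultured in 96-well plates, with a 48-hour exposure period. GI50: concentration for 50% inhibition of growth. TGI marks complete inhibition of growth.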
Legend:
Assay in all cases: NCI tumour cell line growth inhibition, 48 h
786-0 renal = system: 786-0 renal
A498 renal = system: A498 renal
A549 NSCLC = system: A549 NSCLC
ACHN renal = system: ACHN renal
BT-549 breast = system: BT-549 breast
CAKI-1 renal = system: CAKI-1 renal
CCRF-CEM leukemia = system: CCRF-CEM leukemia
COLO 205 colon = system: COLO 205 colon
DU-145 prostate = system: DU-145 prostate
EKVX NSCLC = system: EKVX NSCLC
HCC-2998 colon = system: HCC-2998 colon
HCT-116 colon = system: HCT-116 colon
HCT-15 colon = system: HCT-15 colon
HL-60(TB) leukemia = system: HL-60(TB) leukemia
HOP-62 NSCLC = system: HOP-62 NSCLC
HOP-92 NSCLC = system: HOP-92 NSCLC
HS 578T breast = system: HS 578T breast
HT29 colon = system: HT29 colon
IGROV1 ovarian = system: IGROV1 ovarian
K-562 leukemia = system: K-562 leukemia
KM12 colon = system: KM12 colon
LOX IMVI melanoma = system: LOX IMVI melanoma
MALME-3M melanoma = system: MALME-3M melanoma
MCF7 breast = system: MCF7 breast
MDA-MB-231 breast = system: MDA-MB-231 breast
MDA-MB-435 = system: MDA-MB-435
MOLT-4 leukemia = system: MOLT-4 leukemia
NCI-H226 lung = system: NCI-H226 lung
NCI-H23 lung = system: NCI-H23 lung
NCI-H460 lung = system: NCI-H460 lung
NCI-H522 lung = system: NCI-H522 lung
NCI/ADR-RES ovarian = system: NCI/ADR-RES ovarian
OVCAR-3 ovarian = system: OVCAR-3 ovarian
OVCAR-4 ovarian = system: OVCAR-4 ovarian
OVCAR-5 ovarian = system: OVCAR-5 ovarian
OVCAR-8 ovarian = system: OVCAR-8 ovarian
PC-3 prostate = system: PC-3 prostate
RPMI-8226 leukemia = system: RPMI-8226 leukemia
RXF 393 renal = system: RXF 393 renal
SF-268 CNS = system: SF-268 CNS
SF-295 CNS = system: SF-295 CNS
SF-539 CNS = system: SF-539 CNS
SK-MEL-2 melanoma = system: SK-MEL-2 melanoma
SK-MEL-28 melanoma = system: SK-MEL-28 melanoma
SK-MEL-5 melanoma = system: SK-MEL-5 melanoma
SK-OV-3 ovarian = system: SK-OV-3 ovarian
SN12C renal = system: SN12C renal
SNB-19 CNS = system: SNB-19 CNS
SNB-75 CNS = system: SNB-75 CNS
SR leukemia = system: SR leukemia
SW-620 colon = system: SW-620 colon
T-47D breast = system: T-47D breast
TK-10 renal = system: TK-10 renal
U251 CNS = system: U251 CNS
UACC-257 melanoma = system: UACC-257 melanoma
UACC-62 melanoma = system: UACC-62 melanoma
UO-31 renal = system: UO-31 renal

## CN(C)c1ccc2nc3ccc(N)cc3[n+](-c3ccccc3)c2c1
786-0 renal
  GI50: 10.9 µM and 2.19 µM
  TGI: 33.6 µM and 49.2 µM
A498 renal
  GI50: 3.94 µM and 19.6 µM
  TGI: 37.8 µM and > 100 µM
A549 NSCLC
  TGI: > 100 µM and 11.6 µM
ACHN renal
  TGI: 76.9 µM and 31.8 µM
BT-549 breast
  GI50: 2.46 µM and 0.584 µM
  TGI: 14.2 µM and 61.9 µM
CAKI-1 renal
  TGI: 52.8 µM and 7.47 µM
CCRF-CEM leukemia
  GI50: 4.09 µM and 1.25 µM
  TGI: > 100 µM and 21.7 µM
COLO 205 colon
  GI50: 0.759 µM and 0.598 µM
  TGI: 2.99 µM and 2.75 µM
DU-145 prostate
  GI50: 5.32 µM and 1.95 µM
  TGI: 33 µM and 3.96 µM
EKVX NSCLC
  GI50: 1.39 µM and 0.87 µM
  TGI: 23.1 µM and 23 µM
HCC-2998 colon
  GI50: 1.87 µM and 9.25 µM
  TGI: 16.1 µM and 41.8 µM
HCT-116 colon
  GI50: 2.89 µM and 0.42 µM
  TGI: 20.4 µM and 2.08 µM
HCT-15 colon
  TGI: > 100 µM and 24 µM
HL-60(TB) leukemia
  GI50: 0.578 µM
  TGI: 15.9 µM
HOP-62 NSCLC
  GI50: 2.31 µM and 2.92 µM
  TGI: 18.9 µM and 14.4 µM
HOP-92 NSCLC
  GI50: 1.85 µM
  TGI: 8.24 µM
HS 578T breast
  GI50: 3.24 µM and 2.93 µM
  TGI: 28 µM and 56.2 µM
HT29 colon
  GI50: 2.74 µM and 3.19 µM
  TGI: 16.1 µM and 16.2 µM
IGROV1 ovarian
  GI50: 3.31 µM and 1.74 µM
  TGI: 39.3 µM and 5.53 µM
K-562 leukemia
  GI50: 1.51 µM and 0.424 µM
  TGI: > 100 µM and 68.7 µM
KM12 colon
  GI50: 1.75 µM and 1.51 µM
  TGI: 10.2 µM and 26.1 µM
LOX IMVI melanoma
  GI50: 2.65 µM and 0.515 µM
  TGI: 18.3 µM
MALME-3M melanoma
  GI50: 1.57 µM and 0.56 µM
  TGI: 10.1 µM and 4.59 µM
MCF7 breast
  GI50: 0.519 µM and 0.369 µM
  TGI: 30.3 µM and 3.15 µM
MDA-MB-231 breast
  GI50: 4.61 µM and 0.492 µM
  TGI: 31.5 µM and 17.1 µM
MDA-MB-435
  GI50: 1.79 µM and 1.09 µM
  TGI: 8.77 µM and 2.91 µM
MOLT-4 leukemia
  GI50: 5.14 µM and 0.703 µM
NCI-H226 lung
  GI50: 8.77 µM and 13 µM
  TGI: 42 µM and 70.1 µM
NCI-H23 lung
  GI50: 1.73 µM and 0.461 µM
  TGI: 19.8 µM and 5.1 µM
NCI-H460 lung
  GI50: 2.53 µM and 1.9 µM
  TGI: 11.4 µM and 11.2 µM
NCI-H522 lung
  GI50: 1.72 µM
  TGI: 10.5 µM
NCI/ADR-RES ovarian
  TGI: > 100 µM and 11.9 µM
OVCAR-3 ovarian
  GI50: 0.474 µM and 0.317 µM
  TGI: 9.02 µM and 12.7 µM
OVCAR-4 ovarian
  GI50: 0.396 µM and 0.28 µM
OVCAR-5 ovarian
  GI50: 13.3 µM
  TGI: > 81.7 µM
OVCAR-8 ovarian
  GI50: 2.02 µM and 1.07 µM
  TGI: > 66 µM and 7.69 µM
PC-3 prostate
  TGI: 31.2 µM and 3.22 µM
RPMI-8226 leukemia
  GI50: 0.482 µM and 0.177 µM
  TGI: 7.4 µM and 10 µM
RXF 393 renal
  GI50: 16.3 µM and 10.8 µM
  TGI: 67.5 µM and 26.6 µM
SF-268 CNS
  GI50: 1.94 µM and 1.7 µM
  TGI: 20.9 µM and 19.7 µM
SF-295 CNS
  GI50: 1.75 µM and 0.584 µM
  TGI: 7.41 µM and 24.4 µM
SF-539 CNS
  GI50: 2.61 µM and 0.332 µM
  TGI: 13.5 µM and 6.59 µM
SK-MEL-2 melanoma
  GI50: 2.39 µM and 1.74 µM
  TGI: 6.16 µM and 11.1 µM
SK-MEL-28 melanoma
  GI50: 3.76 µM and 7.38 µM
  TGI: 20 µM and 37.7 µM
SK-MEL-5 melanoma
  GI50: 1.07 µM and 0.255 µM
  TGI: 3.02 µM and 0.827 µM
SK-OV-3 ovarian
  GI50: 18.2 µM and 4.73 µM
  TGI: 67.3 µM and > 100 µM
SN12C renal
  GI50: 1.92 µM and 1.34 µM
  TGI: 46 µM and 10.4 µM
SNB-19 CNS
  GI50: 1.69 µM
  TGI: 47.1 µM
SNB-75 CNS
  GI50: 2.44 µM and 2.8 µM
  TGI: 17 µM and 9.52 µM
SR leukemia
  GI50: 2.44 µM and 0.533 µM
SW-620 colon
  GI50: 2.98 µM and 1.18 µM
  TGI: 31 µM and 12.2 µM
T-47D breast
  GI50: 0.457 µM and 0.662 µM
  TGI: 6.5 µM and 21 µM
TK-10 renal
  GI50: 3.87 µM and 2.48 µM
  TGI: 27.4 µM and 28.4 µM
U251 CNS
  GI50: 1.35 µM and 0.64 µM
  TGI: 34.4 µM and 6.5 µM
UACC-257 melanoma
  GI50: 0.757 µM and 0.705 µM
  TGI: > 25.2 µM and 3.33 µM
UACC-62 melanoma
  GI50: 2.04 µM and 1.85 µM
  TGI: 13 µM and 10.3 µM
UO-31 renal
  GI50: 23.6 µM and 4.98 µM
  TGI: > 100 µM and 24.8 µM
